In EP2401611B1, “IMPROVED METHODS FOR IDENTIFICATION” (Cambridge Enterprise Limited, priority 2009, dated 2010):

Test system: TNF-alpha
Experiment: Sub-lethal endotoxemia model (LPS challenge, serum TNF-alpha)
Type: in vivo, mouse
Conditions: very high / highest doses
Protocol: We selected the sub-lethal endotoxemia model in mouse, because this has been well characterised in our laboratory (see for example Fox et al. (2002) J. Med. Chem. 45:360-70; Fox et al. (2005) J. Med. Chem. 48:867-74). The extent of systemic inflammation in response to a single intraperitoneal injection of bacterial lipopolysaccharide (LPS) can be estimated by measuring serum TNF-alpha 2 hours post challenge.
Methods: Mice (CD1 strain; adult males; 6 per group) were treated with BSCI (in an appropriate vehicle) or with vehicle alone by an appropriate route. […] Simultaneously, one set of mice at each BSCI concentration received BIM 23627 at 4mg/animal (120mg/kg) by sub-cutaneous injection (a treatment condition known to suppress classical sstr2-mediated signalling, such as GH release, in rats; Tulipano et al. (2002) 143:1218-24). Between 30mins and 1hour after dosing (a period when a maximal plasma concentration of BSCI has been achieved), the inflammatory challenge was elicited by intraperitoneal injection of 750µg of LPS (Sigma; L4130 lot#024K4077; 900,000 EU/mg).
After a further 2 hours, the animals were sacrificed by CO2 asphyxiation, and blood was drawn by cardiac puncture. Serum was prepared by conventional methods, and the level of TNF-alpha in serum was measured using an ELISA (R&D Systems; Murine Quantikine code# MTA00) performed in accordance with the manufacturer's instructions.

C[C@@H]1C[C@H]2[C@@H]3CCC4=CC(=O)C=C[C@]4(C)[C@@]3(F)[C@@H](O)C[C@]2(C)[C@@]1(O)C(=O)CO [dexamethasone]
inhibition of TNF-alpha: more than 90%
